Like-named read-outs stand apart in the source and are kept apart here.
Columns and labels:
[1] = tested on: K. pneumoniae EN0144; experiment: MIC, MBL (VIM-1); format: cell-based; conditions: Klebsiella pneumoniae, EN0144, combination didanosine+trimethoprim+uridine, Table 20; read-out: MIC
[2] = tested on: K. pneumoniae EN0140; experiment: MIC, AmpC (DHA-1); format: cell-based; conditions: Klebsiella pneumoniae, EN0140, combination didanosine+trimethoprim+uridine, Table 20; read-out: MIC
[3] = tested on: S. sonnei APV00908; experiment: MIC and antibiogram; format: cell-based; conditions: Shigella sonnei, Table 22A
[4] = tested on: M. luteus EN0455; experiment: MIC; format: cell-based, Micrococcus luteus; conditions: Micrococcus luteus, read-out: MIC
[5] = tested on: A. pittii or A. nosocomialis EN0180; experiment: MIC; format: cell-based, Acinetobacter pittii or nosocomialis; conditions: read-out: MIC
[6] = tested on: S. epidermidis EN0456; experiment: MIC; format: cell-based, Staphylococcus epidermidis; conditions: Staphylococcus epidermidis, read-out: MIC
[7] = tested on: Citrobacter sp. EN0465; experiment: MIC; format: cell-based; conditions: Citrobacter, read-out: MIC
[8] = tested on: P. aeruginosa EN014; experiment: MIC, WT; format: cell-based, Pseudomonas aeruginosa; conditions: Pseudomonas aeruginosa, read-out: MIC
[9] = tested on: P. aeruginosa EN0422; experiment: MIC; format: cell-based, Pseudomonas aeruginosa; conditions: Pseudomonas aeruginosa, read-out: MIC
[10] = tested on: E. coli EN002; experiment: MIC, DtoIC; format: cell-based, Escherichia coli; conditions: Escherichia coli, read-out: MIC
[11] = tested on: K. pneumoniae EN006; experiment: MIC, WT (EN006 = EN0006, ATCC 13883); format: cell-based, Klebsiella pneumoniae; conditions: Klebsiella pneumoniae, read-out: MIC
[12] = tested on: P. aeruginosa EN0459; experiment: MIC; format: cell-based, Pseudomonas aeruginosa; conditions: Pseudomonas aeruginosa, read-out: MIC
[13] = tested on: E. coli EN0134; experiment: MIC, AmpC (CMY-4); format: cell-based; conditions: Escherichia coli, EN0134, combination didanosine+trimethoprim+uridine, Table 20; read-out: MIC
[14] = tested on: S. aureus EN008; experiment: MIC, Gram-positive control; format: cell-based, Staphylococcus aureus; conditions: Staphylococcus aureus, read-out: MIC
[15] = tested on: K. pneumoniae EN0249; experiment: MIC, colistinR; format: cell-based; conditions: Klebsiella pneumoniae, EN0249, combination didanosine+trimethoprim+uridine, Table 20; read-out: MIC
[16] = tested on: P. aeruginosa EN004; experiment: MIC, WT (EN004 = EN0004); format: cell-based, Pseudomonas aeruginosa; conditions: Pseudomonas aeruginosa, Table 16, read-out: MIC

Measured: MIC

O=c1ccn([C@@H]2O[C@H](CO)[C@@H](O)[C@H]2O)c(=O)[nH]1 [Uridine, uridine]
4 µg/mL: [10]; EN002, combination AZT+trimethoprim+uridine, Table 6
16 µg/mL: [6]; EN0456, combination AZT+trimethoprim+uridine, Table 6 | [11]; EN006, combination AZT+trimethoprim+uridine, Table 6
6 µg/mL: [6]; EN0456, combination didanosine+trimethoprim+uridine, Table 10 | [10]; EN002, combination FdUrd+trimethoprim+uridine, Table 8 | [10]; EN002, combination didanosine+trimethoprim+uridine, Table 10
12.5 µg/mL: [10]; EN002, Combination 2 AZT+trimethoprim+uridine+thymidine, Table 16 | [11]; EN006, Combination 1 AZT+trimethoprim+uridine, Table 16
3 µg/mL: [3]; APV00908, combination AZT+trimethoprim+uridine
400 µg/mL: [5]; combination FdUrd+trimethoprim+uridine, Table 8
200 µg/mL: [4]; EN0455, Combination 1 AZT+trimethoprim+uridine, Table 16 | [4]; EN0455, combination FdUrd+trimethoprim+uridine, Table 8 | [4]; EN0455, combination didanosine+trimethoprim+uridine, Table 10 | [6]; EN0456, Combination 2 AZT+trimethoprim+uridine+thymidine, Table 16
< 0.8 µg/mL: [6]; EN0456, combination FdUrd+trimethoprim+uridine, Table 8 | [14]; EN008, combination FdUrd+trimethoprim+uridine, Table 8
> 1000 µg/mL: [5]; combination AZT+trimethoprim+uridine, Table 6 | [7]; SP.EN0465, combination AZT+trimethoprim+uridine, Table 6 | [8]; EN014, combination AZT+trimethoprim+uridine, Table 6 | [9]; EN0422, combination AZT+trimethoprim+uridine, Table 6 | [12]; EN0459, combination AZT+trimethoprim+uridine, Table 6
66.4 µg/mL: [6]; EN0456, Combination 1 AZT+trimethoprim+uridine, Table 16
500 µg/mL: [4]; EN0455, combination AZT+trimethoprim+uridine, Table 6
> 400 µg/mL: [1] | [2] | [3]; APV00908, combination FdUrd+trimethoprim+uridine | [4]; EN0455, Combination 2 AZT+trimethoprim+uridine+thymidine, Table 16 | [5]; Combination 1 AZT+trimethoprim+uridine, Table 16 | [5]; Combination 2 AZT+trimethoprim+uridine+thymidine, Table 16 | [5]; combination didanosine+trimethoprim+uridine, Table 10 | [7]; SP.EN0465, Combination 1 AZT+trimethoprim+uridine, Table 16 | [7]; SP.EN0465, Combination 2 AZT+trimethoprim+uridine+thymidine, Table 16 | [7]; SP.EN0465, combination FdUrd+trimethoprim+uridine, Table 8 | [7]; SP.EN0465, combination didanosine+trimethoprim+uridine, Table 10 | [8]; EN014, Combination 1 AZT+trimethoprim+uridine, Table 16 | [8]; EN014, Combination 2 AZT+trimethoprim+uridine+thymidine, Table 16 | [8]; EN014, combination FdUrd+trimethoprim+uridine, Table 8 | [8]; EN014, combination didanosine+trimethoprim+uridine, Table 10 | [9]; EN0422, Combination 1 AZT+trimethoprim+uridine, Table 16 | [9]; EN0422, Combination 2 AZT+trimethoprim+uridine+thymidine, Table 16 | [9]; EN0422, combination FdUrd+trimethoprim+uridine, Table 8 | [9]; EN0422, combination didanosine+trimethoprim+uridine, Table 10 | [12]; EN0459, Combination 1 AZT+trimethoprim+uridine, Table 16 | [12]; EN0459, Combination 2 AZT+trimethoprim+uridine+thymidine, Table 16 | [12]; EN0459, combination FdUrd+trimethoprim+uridine, Table 8 | [12]; EN0459, combination didanosine+trimethoprim+uridine, Table 10 | [13] | [14]; EN008, Combination 2 AZT+trimethoprim+uridine+thymidine, Table 16 | [15] | [16]; EN004, Combination 1 AZT+trimethoprim+uridine | [16]; EN004, Combination 2 AZT+trimethoprim+uridine+thymidine

— patent US10828317B2, “Method of treating bacterial infections” (priority 2016, dated 2020)
